Test system: symptoms of restless legs syndrome (RLS)
Assay: Treatment of RLS patient, Case No. 1
Type: in vivo, human
Details: L-Dopa treatment before neem

Structure (SMILES): N[C@@H](Cc1ccc(O)c(O)c1)C(=O)O [L-Dopa]
- symptoms of RLS under exposure to L-Dopa: did not completely cease
